This note sets out measurements from patent publication US4426447A, “Homocitric acid oligoriboside derivative for prevention of dental caries” (Zaidan Hojin Biseibutsu Kagaku Kenkyu Kai, priority 1980, dated 1984).

Data set [1] can be described thus: Solubility (characterizing properties). It is filed as physicochemical. The conditions noted are these: sodium salt. From the text: Ribocitrin in the form of its sodium salt has the following characterizing properties:
2. Soluble in water; insoluble in organic solvents.

Data set [2] has as its system Streptococcus mutans ATCC 27607. Briefly: Inhibition of Streptococcus mutans adherence (adhered plaque turbidity). The conditions noted are these: for Turbidity (600 nm): 37° C., 14 hours; for inhibition at 50 µg/mL / inhibition at 100 µg/mL: Streptococcus mutans, ATCC27607, 14 h. It counts as cell-based. How it is done:
Heart Infusion bouillon (Difco) containing various concentrations of sucrose was autoclaved and added aseptically with various amounts of ribocitrin aqueous solution (filter-sterilized) or sterile water for control (final volume is 3.0 ml and final concentrations are shown in Table 1). Each tube was inoculated with 1×10^5 CFU of Streptococcus mutans ATCC 27607 grown overnight at 37° C. in Brain Heart Infusion bouillon (Difco) and incubated anaerobically in a candle jar at 37° C. for 14 hours. The tube was positioned at an angle 30° from the horizontal. Nonadherent cells were removed by pouring off the broth and the test tube was washed three times with 3 ml of 5 mM phosphate buffer (pH 6.0). The adhered plaque (insoluble dextran and cellular aggregates formed as a result of insoluble dextran production) was suspended in 3 ml of phosphate buffer described above by mechanical stirring and by scraping the surface with a glass rod. Turbidity of the suspension was measured at 600 nm.

In another data set the test system is dextransucrase. Briefly: Inhibitory activity to dextransucrase (turbidity at 600 nm). It is filed as biochemical, Streptococcus mutans ATCC 27607. As to conditions: qualitative statement; curve only in FIG. 4. Here is the method: Dextransucrase was prepared as follows: Streptococcus mutans ATCC 27607 was inoculated to Brain Heart Infusion bouillon (Eiken Chemical Co.) and grown overnight at 37° C. The culture supernatant obtained by centrifugation was precipitated with ammonium sulfate at 50% saturation. The precipitated enzyme was desalted and purified by conventional procedures.

Where a name gives a salt, the structure may show the parent alone. Read-outs that look alike come from different tables or passages of the source.

On to `O=C(O)CC[C@@](CC(=O)O)(O[C@H]1O[C@H](CO)[C@@H](O[C@H]2O[C@H](CO)[C@@H](O)[C@H]2O[C@H]2O[C@H](CO)[C@@H](O)[C@H]2O)[C@H]1O)C(=O)O` [Ribocitrin (sodium salt)], for which the “Solubility in organic solvents” value in data set [1] (organic solvents) is given as “insoluble”. Besides, the Solubility in water entry in data set [1] (water) is on record as “Soluble”. Moreover, the “Turbidity (600 nm)” value was 0.510 in data set [2] (50 μg/ml ribocitrin sodium salt, 0.5% sucrose); 0.340 in data set [2] (50 μg/ml ribocitrin sodium salt, 1.0% sucrose); 0.333 in data set [2] (50 μg/ml ribocitrin sodium salt, 2.0% sucrose); 0.249 in data set [2] (100 μg/ml ribocitrin sodium salt, 0.5% sucrose); 0.173 in data set [2] (100 μg/ml ribocitrin sodium salt, 1.0% sucrose); 0.132 in data set [2] (100 μg/ml ribocitrin sodium salt, 2.0% sucrose). Further, the inhibition at 50 µg/mL in data set [2] (read-out: Percent inhibition, 50 μg/ml ribocitrin sodium salt, 0.5% sucrose, 37° C.) came out at 17%; in data set [2] (read-out: Percent inhibition, 50 μg/ml ribocitrin sodium salt, 1.0% sucrose, 37° C.), 43%; in data set [2] (read-out: Percent inhibition, 50 μg/ml ribocitrin sodium salt, 2.0% sucrose, 37° C.), 33%. The inhibition at 100 µg/mL was found to be 60% in data set [2] (read-out: Percent inhibition, 100 μg/ml ribocitrin sodium salt, 0.5% sucrose, 37° C.); 71% in data set [2] (read-out: Percent inhibition, 100 μg/ml ribocitrin sodium salt, 1.0% sucrose, 37° C.); 73% in data set [2] (read-out: Percent inhibition, 100 μg/ml ribocitrin sodium salt, 2.0% sucrose, 37° C.).
In the case of `O=C(O)CC[C@@](CC(=O)O)(O[C@H]1O[C@H](CO)[C@@H](O[C@H]2O[C@H](CO)[C@@H](O)[C@H]2O[C@H]2O[C@H](CO)[C@@H](O)[C@H]2O)[C@H]1O)C(=O)O` [ribocitrin, 2-(S)-[O-α-D-ribofuranosyl-(1→2)-O-α-D-ribofuranosyl-(1→3)-α-D-ribofuranosyloxy]-1,2,4-butanetricarboxylic acid], in the data set on dextransucrase, the “Inhibitory activity toward dextransucrase (in words)” value is listed as “effective inhibitors of dextransucrase”.
